Assay results as given in ChEMBL document CHEMBL1201862, “PubChem BioAssay data set” (2004).
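Five concentrations, 48 hours, 96-well plates. GI50 marks 50% less growth.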 The source made the active and inactive calls. Cut-off read from the data, not from the text of the source: active = GI50 up to about 1.1 µM and inactive = higher.

What was measured:
Test in all cases: NCI tumour cell line growth inhibition, 48 h
NCI-H460 = test system: NCI-H460
SK-MEL-5 = test system: SK-MEL-5
SNB-19 = test system: SNB-19
K562 = test system: K562
DMS-114 = test system: DMS-114
OVCAR-3 = test system: OVCAR-3
SNB-75 = test system: SNB-75
HT-29 = test system: HT-29
HCT-116 = test system: HCT-116
ACHN = test system: ACHN
HOP-92 = test system: HOP-92
KM12 = test system: KM12
A549 = test system: A549
TK-10 = test system: TK-10
OVCAR-5 = test system: OVCAR-5
HOP-18 = test system: HOP-18
KM-20L2 = test system: KM-20L2
SF-295 = test system: SF-295
U-251 = test system: U-251
UACC-62 = test system: UACC-62
HOP-62 = test system: HOP-62
DLD-1 = test system: DLD-1
OVCAR-8 = test system: OVCAR-8
UACC-257 = test system: UACC-257
UO-31 = test system: UO-31
SR = test system: SR
IGROV-1 = test system: IGROV-1
COLO 205 = test system: COLO 205
NCI-H226 = test system: NCI-H226
EKVX = test system: EKVX
SF-539 = test system: SF-539
M14 = test system: M14
NCI-H522 = test system: NCI-H522
SK-OV-3 = test system: SK-OV-3
M19-MEL = test system: M19-MEL
SN12C = test system: SN12C
HCT-15 = test system: HCT-15
NCI-H23 = test system: NCI-H23
RXF 393 = test system: RXF 393
Malme-3M = test system: Malme-3M
DMS-273 = test system: DMS-273
SK-MEL-2 = test system: SK-MEL-2
CAKI-1 = test system: CAKI-1
RPMI-8226 = test system: RPMI-8226
OVCAR-4 = test system: OVCAR-4
SNB-78 = test system: SNB-78
MOLT-4 = test system: MOLT-4
786-0 = test system: 786-0
HCC 2998 = test system: HCC 2998
CCRF-CEM = test system: CCRF-CEM
A498 = test system: A498
LXFL 529 = test system: LXFL 529
SF-268 = test system: SF-268
SK-MEL-28 = test system: SK-MEL-28
LOX IMVI = test system: LOX IMVI
HL-60 = test system: HL-60
SW-620 = test system: SW-620
XF498 = test system: XF498

## CCc1cccc(C)c1NC(=S)NC(=O)c1ccccc1C(=O)NC(=S)Nc1c(C)cccc1CC
NCI-H460
  GI50: 67.8 µM (inactive)
SK-MEL-5
  GI50: > 100 µM (inactive)
SNB-19
  GI50: > 100 µM (inactive)
K562
  GI50: 38.9 µM (inactive)
DMS-114
  GI50: 29.9 µM (inactive)
OVCAR-3
  GI50: 23.8 µM (inactive)
SNB-75
  GI50: > 100 µM (inactive)
HT-29
  GI50: 43 µM (inactive)
HCT-116
  GI50: 71.4 µM (inactive)
ACHN
  GI50: > 100 µM (inactive)
HOP-92
  GI50: 19.1 µM (inactive)
KM12
  GI50: 77.1 µM (inactive)
A549
  GI50: 90.4 µM (inactive)
TK-10
  GI50: > 100 µM (inactive)
OVCAR-5
  GI50: > 100 µM (inactive)
HOP-18
  GI50: 50.7 µM (inactive)
KM-20L2
  GI50: 91.8 µM (inactive)
SF-295
  GI50: 57.7 µM (inactive)
U-251
  GI50: 67.6 µM (inactive)
UACC-62
  GI50: 37.7 µM (inactive)
HOP-62
  GI50: > 100 µM (inactive)
DLD-1
  GI50: > 100 µM (inactive)
OVCAR-8
  GI50: 95.1 µM (inactive)
UACC-257
  GI50: > 100 µM (inactive)
UO-31
  GI50: > 100 µM (inactive)
SR
  GI50: 38.4 µM (inactive)
IGROV-1
  GI50: 93.8 µM (inactive)
COLO 205
  GI50: 61.1 µM (inactive)
NCI-H226
  GI50: 50.4 µM (inactive)
EKVX
  GI50: 59.6 µM (inactive)
SF-539
  GI50: > 100 µM (inactive)
M14
  GI50: > 100 µM (inactive)
NCI-H522
  GI50: 18.2 µM (inactive)
SK-OV-3
  GI50: > 100 µM (inactive)
M19-MEL
  GI50: 39.2 µM (inactive)
SN12C
  GI50: > 100 µM (inactive)
HCT-15
  GI50: > 100 µM
NCI-H23
  GI50: 35.6 µM (inactive)
RXF 393
  GI50: > 100 µM (inactive)
Malme-3M
  GI50: > 100 µM (inactive)
DMS-273
  GI50: 95.3 µM (inactive)
SK-MEL-2
  GI50: > 100 µM (inactive)
CAKI-1
  GI50: 56.2 µM (inactive)
RPMI-8226
  GI50: 60 µM (inactive)
OVCAR-4
  GI50: 69.3 µM (inactive)
SNB-78
  GI50: > 100 µM (inactive)
MOLT-4
  GI50: 53.7 µM (inactive)
786-0
  GI50: > 100 µM (inactive)
HCC 2998
  GI50: 90.6 µM (inactive)
CCRF-CEM
  GI50: 36.3 µM (inactive)
A498
  GI50: > 100 µM (inactive)
LXFL 529
  GI50: 85.5 µM (inactive)
SF-268
  GI50: > 100 µM (inactive)
SK-MEL-28
  GI50: > 100 µM (inactive)
LOX IMVI
  GI50: > 100 µM (inactive)
HL-60
  GI50: 40.6 µM (inactive)
SW-620
  GI50: 75.3 µM (inactive)

## CSC(=S)N(C)NC(=O)c1cccc(C(=O)NN(C)C(=S)SC)n1
NCI-H460
  GI50: 6.11 µM (inactive)
SK-MEL-5
  GI50: 15.7 µM (inactive)
SNB-19
  GI50: 26.4 µM (inactive)
K562
  GI50: 15.6 µM (inactive)
DMS-114
  GI50: 1.36 µM (inactive)
SNB-75
  GI50: 34.3 µM (inactive)
HT-29
  GI50: 3.06 µM (inactive)
HCT-116
  GI50: 36.3 µM (inactive)
ACHN
  GI50: > 100 µM (inactive)
HOP-92
  GI50: 21.5 µM (inactive)
KM12
  GI50: 2.89 µM (inactive)
A549
  GI50: 14.8 µM (inactive)
OVCAR-5
  GI50: 4.88 µM (inactive)
HOP-18
  GI50: 78.5 µM (inactive)
KM-20L2
  GI50: 4.07 µM (inactive)
SF-295
  GI50: 3.44 µM (inactive)
U-251
  GI50: 18.6 µM (inactive)
UACC-62
  GI50: 14.3 µM (inactive)
HOP-62
  GI50: 17.1 µM (inactive)
DLD-1
  GI50: 27.2 µM (inactive)
OVCAR-8
  GI50: 21.8 µM (inactive)
UACC-257
  GI50: 7.48 µM (inactive)
SR
  GI50: 4.97 µM (inactive)
IGROV-1
  GI50: 8.2 µM (inactive)
COLO 205
  GI50: > 100 µM (inactive)
NCI-H226
  GI50: 25.9 µM (inactive)
EKVX
  GI50: 16.1 µM (inactive)
SF-539
  GI50: 24.5 µM (inactive)
M14
  GI50: 14.6 µM (inactive)
NCI-H522
  GI50: 15.2 µM (inactive)
M19-MEL
  GI50: 31 µM (inactive)
SN12C
  GI50: 22.2 µM (inactive)
HCT-15
  GI50: 25.9 µM
NCI-H23
  GI50: 24.2 µM (inactive)
RXF 393
  GI50: 25.7 µM (inactive)
DMS-273
  GI50: 14.1 µM (inactive)
RPMI-8226
  GI50: 10.3 µM (inactive)
OVCAR-4
  GI50: 10.3 µM (inactive)
SNB-78
  GI50: 27.7 µM (inactive)
MOLT-4
  GI50: 4.33 µM (inactive)
786-0
  GI50: 19.4 µM (inactive)
CCRF-CEM
  GI50: 2.96 µM (inactive)
A498
  GI50: 28.2 µM (inactive)
LXFL 529
  GI50: 10.4 µM (inactive)
SF-268
  GI50: 6.1 µM (inactive)
SK-MEL-28
  GI50: 15.4 µM (inactive)
LOX IMVI
  GI50: 31.4 µM (inactive)
HL-60
  GI50: 5.7 µM (inactive)
SW-620
  GI50: 32.7 µM (inactive)

## NC(=O)NCc1c(C(N)=O)ncn1Cc1ccccc1
NCI-H460
  GI50: > 100 µM (inactive)
SK-MEL-5
  GI50: > 100 µM (inactive)
SNB-19
  GI50: > 100 µM (inactive)
K562
  GI50: > 100 µM (inactive)
DMS-114
  GI50: > 100 µM (inactive)
OVCAR-3
  GI50: > 100 µM (inactive)
SNB-75
  GI50: > 100 µM (inactive)
HT-29
  GI50: > 100 µM (inactive)
HCT-116
  GI50: > 100 µM (inactive)
ACHN
  GI50: > 100 µM (inactive)
HOP-92
  GI50: > 100 µM (inactive)
A549
  GI50: > 100 µM (inactive)
TK-10
  GI50: > 100 µM (inactive)
HOP-18
  GI50: > 100 µM (inactive)
KM-20L2
  GI50: > 100 µM (inactive)
SF-295
  GI50: > 100 µM (inactive)
U-251
  GI50: > 100 µM (inactive)
UACC-62
  GI50: > 100 µM (inactive)
HOP-62
  GI50: > 100 µM (inactive)
DLD-1
  GI50: > 100 µM (inactive)
OVCAR-8
  GI50: > 100 µM (inactive)
UACC-257
  GI50: > 100 µM (inactive)
IGROV-1
  GI50: > 100 µM (inactive)
COLO 205
  GI50: > 100 µM (inactive)
EKVX
  GI50: > 100 µM (inactive)
SF-539
  GI50: > 100 µM (inactive)
M14
  GI50: > 100 µM (inactive)
SK-OV-3
  GI50: > 100 µM (inactive)
M19-MEL
  GI50: > 100 µM (inactive)
SN12C
  GI50: > 100 µM (inactive)
HCT-15
  GI50: > 100 µM
NCI-H23
  GI50: > 100 µM (inactive)
RXF 393
  GI50: > 100 µM (inactive)
DMS-273
  GI50: > 100 µM (inactive)
CAKI-1
  GI50: > 100 µM (inactive)
RPMI-8226
  GI50: > 100 µM (inactive)
OVCAR-4
  GI50: > 100 µM (inactive)
SNB-78
  GI50: > 100 µM (inactive)
MOLT-4
  GI50: > 100 µM (inactive)
786-0
  GI50: > 100 µM (inactive)
XF498
  GI50: > 100 µM (inactive)
HCC 2998
  GI50: > 100 µM (inactive)
CCRF-CEM
  GI50: > 100 µM (inactive)
A498
  GI50: > 100 µM (inactive)
LXFL 529
  GI50: > 100 µM (inactive)
SK-MEL-28
  GI50: > 100 µM (inactive)
LOX IMVI
  GI50: > 100 µM (inactive)
HL-60
  GI50: > 100 µM (inactive)
SW-620
  GI50: > 100 µM (inactive)
